# Laboratory results reported in patent US10799478B2, “Treatment of androgen deprivation therapy associated symptoms” (priority 2014, dated 2020).
# Where two headings read alike, the source gives them in different places.
# Legend:
# [1] = system: LnCAP human prostate cancer cells; experiment: LnCAP Gene Expression; format: cell-based; conditions: Homo sapiens, LNCaP
# ORX Wistar male rats = experiment: In Vivo Study to Explore Direct Antagonist Effect of Example 1 in the Presence of TE; set-up: species or system rat
# Procedure: Route of administration for all groups except TE is oral. TE is administered subcutaneously. At the end of 8 weeks of daily dosing, rats are euthanized, weighed & tissue harvested. Levator ani, prostates, and seminal vesicles are collected from each animal. Results are plotted as means±SE.
# Orx rats = experiment: Orchidectomized Rat Assay; format: in vivo; conditions: PTH 10 ug/Kg/d sc, once daily 2 months
# [2] = ORX + TE 1 mg/kg/d (control group of Dunnett's comparison)
# [3] = ORX + TE 1 mg/kg/d sc alone, 8 weeks
compound,measurement,setting,value
C[C@]1(O)CC[C@H]2[C@@H]3CCC4=CC(=O)CCC4=C3C=C[C@@]21C [Example R1881],EC50,"[1]; AR gene, read-out: LnCAP Gene Expression EC50 (nM) AR",0.035 nM
same,EC50,"[1]; CLUSTERIN gene, read-out: LnCAP Gene Expression EC50 (nM) CLUSTERIN",0.37 nM
same,EC50,"[1]; PSA gene, read-out: LnCAP Gene Expression EC50 (nM) PSA",0.034 nM
"CCCCCCC(=O)O[C@H]1CC[C@H]2[C@@H]3CCC4=CC(=O)CC[C@]4(C)[C@H]3CC[C@]12C [TE, testosterone enanthate, reference compound]","Prostate Weights, Abs(Dif) − LSD",ORX Wistar male rats; [2],−0.15
same,"Seminal Vesicle Wet Weights, Abs(Dif) − LSD",ORX Wistar male rats; [2],−0.52
same,"Prostate Weight, % Sham",ORX Wistar male rats; [3],45.5 % Sham
same,"SV Weight, % Sham",ORX Wistar male rats; [3],58.5 % Sham
"PTH: PTH (1-38) (Zeneca (Cambridge Research Biochemicals)), given sc as an injection (SVSEIQLMHNLGKHLNSMERVEWLRKKLQDVHNFVALG; Parathyroid hormone; UniProt P01270 32-69, looked up, fragment) [reference compound]","SV Weight, % Sham",Orx rats,5.6 % Sham
